The values that follow come from BindingDB's records for PubMed 3012067 (Johns Hopkins University, 1986).

Where “and” joins values, the source holds several entries; their conditions need not be identical. Equal entries are not always repeated.

What is called Ki is a dissociation constant, usually derived from enzyme kinetics or from competition with a known ligand.

This test deals with Voltage-dependent L-type calcium channel subunit alpha-1C (Rattus norvegicus, UniProt P22002).
Sequence of Voltage-dependent L-type calcium channel subunit alpha-1C (P22002 whole entry): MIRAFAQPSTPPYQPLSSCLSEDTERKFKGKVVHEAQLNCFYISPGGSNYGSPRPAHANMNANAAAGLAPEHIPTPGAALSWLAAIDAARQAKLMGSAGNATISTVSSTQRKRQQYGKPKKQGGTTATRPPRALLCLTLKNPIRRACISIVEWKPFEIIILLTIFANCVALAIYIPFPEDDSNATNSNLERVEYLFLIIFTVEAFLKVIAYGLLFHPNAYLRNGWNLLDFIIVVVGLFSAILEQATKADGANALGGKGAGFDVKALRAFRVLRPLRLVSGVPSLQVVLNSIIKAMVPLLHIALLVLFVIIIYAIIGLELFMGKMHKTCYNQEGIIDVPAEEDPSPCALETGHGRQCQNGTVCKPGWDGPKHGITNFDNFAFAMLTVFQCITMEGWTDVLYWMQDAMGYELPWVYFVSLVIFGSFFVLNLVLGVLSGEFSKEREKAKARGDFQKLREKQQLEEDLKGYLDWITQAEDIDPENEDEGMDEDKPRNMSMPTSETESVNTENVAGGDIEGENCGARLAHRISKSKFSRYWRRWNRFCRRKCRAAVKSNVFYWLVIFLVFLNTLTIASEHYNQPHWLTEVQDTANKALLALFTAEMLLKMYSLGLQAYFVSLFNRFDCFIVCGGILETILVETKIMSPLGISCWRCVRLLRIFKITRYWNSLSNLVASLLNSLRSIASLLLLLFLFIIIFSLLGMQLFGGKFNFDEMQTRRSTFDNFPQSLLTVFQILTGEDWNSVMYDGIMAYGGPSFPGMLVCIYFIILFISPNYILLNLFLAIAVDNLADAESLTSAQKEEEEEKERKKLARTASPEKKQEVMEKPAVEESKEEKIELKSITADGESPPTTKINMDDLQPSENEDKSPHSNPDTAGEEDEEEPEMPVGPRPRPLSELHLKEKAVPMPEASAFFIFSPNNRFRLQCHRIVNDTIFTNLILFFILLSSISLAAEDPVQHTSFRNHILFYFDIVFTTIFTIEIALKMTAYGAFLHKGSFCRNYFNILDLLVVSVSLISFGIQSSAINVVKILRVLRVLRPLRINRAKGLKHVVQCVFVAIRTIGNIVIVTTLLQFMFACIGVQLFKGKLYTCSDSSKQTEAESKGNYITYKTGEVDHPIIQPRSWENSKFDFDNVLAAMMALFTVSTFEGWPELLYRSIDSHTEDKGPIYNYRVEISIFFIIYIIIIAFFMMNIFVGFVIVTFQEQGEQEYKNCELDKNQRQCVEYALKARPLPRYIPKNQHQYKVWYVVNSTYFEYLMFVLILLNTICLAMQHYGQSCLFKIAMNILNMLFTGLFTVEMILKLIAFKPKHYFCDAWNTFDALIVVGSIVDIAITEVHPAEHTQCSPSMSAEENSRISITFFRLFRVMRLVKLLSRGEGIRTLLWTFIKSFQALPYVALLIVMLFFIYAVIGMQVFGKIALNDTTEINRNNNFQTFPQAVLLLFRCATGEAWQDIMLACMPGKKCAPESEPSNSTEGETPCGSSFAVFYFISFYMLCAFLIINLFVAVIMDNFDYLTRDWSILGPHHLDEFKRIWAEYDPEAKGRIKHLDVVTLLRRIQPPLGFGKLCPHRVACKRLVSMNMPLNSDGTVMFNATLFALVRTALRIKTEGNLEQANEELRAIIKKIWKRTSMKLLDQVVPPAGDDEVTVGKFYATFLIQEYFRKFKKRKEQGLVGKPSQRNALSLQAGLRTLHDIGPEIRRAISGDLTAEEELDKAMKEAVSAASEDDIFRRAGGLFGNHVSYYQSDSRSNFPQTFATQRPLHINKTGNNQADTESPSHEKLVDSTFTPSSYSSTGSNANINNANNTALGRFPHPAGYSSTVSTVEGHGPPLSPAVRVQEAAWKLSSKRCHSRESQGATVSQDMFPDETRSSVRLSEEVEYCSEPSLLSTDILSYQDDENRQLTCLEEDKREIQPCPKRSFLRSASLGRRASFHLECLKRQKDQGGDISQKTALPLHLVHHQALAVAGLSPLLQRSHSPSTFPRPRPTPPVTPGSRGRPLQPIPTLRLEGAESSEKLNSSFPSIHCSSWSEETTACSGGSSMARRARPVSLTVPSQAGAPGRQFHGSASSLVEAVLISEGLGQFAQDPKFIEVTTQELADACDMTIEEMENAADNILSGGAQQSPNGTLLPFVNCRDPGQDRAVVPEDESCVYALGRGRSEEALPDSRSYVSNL
Turning to `CC(Cc1ccccc1)NCCC(c1ccccc1)c1ccccc1` (centres undefined), the Ki was 384 nM and 320 nM.

Consider `CCOC(=O)C1=C(C)N=C(C)C(C(=O)OCC)C1c1ccccc1C(F)(F)F` (centres undefined) [NSC_168089], for which the Ki was 268 nM. As for `CCOP(=O)(Cc1ccc(-c2nc3ccccc3s2)cc1)OCC` [NSC_53421], the Ki was 1690 nM and 442 nM. `COc1ccc(CCN(C)CCCC(C#N)(c2cc(OC)c(OC)c(OC)c2)C(C)C)cc1OC` (centres undefined) [GALLOPAMIL]: the Ki was 21.4 nM and 22.5 nM. Take `COC(=O)C1=C(C)N=C(C)C([N+](=O)[O-])C1c1ccccc1C(F)(F)F` (centres undefined) [Bay k 8644]: the inhibition constant (Ki) worked out at 1110 nM.

Consider `CC(C)COC[C@H](CN(Cc1ccccc1)c1ccccc1)N1CCCC1`, for which the inhibitory constant (Ki) is 547 nM and 241 nM.

In the case of `CN(C)C(=O)C(CCN1CCC(O)(c2ccc(Cl)cc2)CC1)(c1ccccc1)c1ccccc1`, the Ki is 205 nM and 127 nM. The figure for `COc1ccc(CCN(C)CCCC2(c3ccc(OC)c(OC)c3)S(=O)(=O)CCCS2(=O)=O)cc1OC` is 1440 nM and 416 nM; for `Cc1cccc(C)c1NC(=O)CN1CCN(CCCC(c2ccc(F)cc2)c2ccc(F)cc2)CC1` it is 305 nM and 188 nM.
